Results on seven molecules are retold here after US5616615A, “Enaminone esters” (priority 1995, dated 1997).

The test system of data set [1] is Subcutaneous Pentylenetetrazol seizure. In words: sc Met subcutaneous pentylenetetrazol (Metrazol) seizure test, mice. Type of data set: in vivo. The conditions noted are these: for responders at 100 mg/kg / responders at 300 mg/kg: Mus musculus, sc.
A further data set relates to seizures. The experiment in a line: Anticonvulsant evaluation (ASP phase I / overall). Format: in vivo, mice. The note with it: Mus musculus, ip, read-out: ASP Classification. The procedure, abridged:
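Male Carworth Farms #1 mice; maximal electroshock seizures elicited by 60-cycle AC, 50 mA, 0.2 s via corneal electrodes after a drop of 0.9% saline in the eye. Animals observed for 30 minutes.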

Data set [2] can be described thus: in vivo. The note with it: rat, po, 50 mg/kg. From the text:
(§1) This oral screen is designated as phase VI.

Data set [3] can be described thus: in vivo. The note with it: for Tox (rotorod), animals toxic/tested: mouse, in vivo. As to the method: The first phase of the ADD Program involved performing tests on male Carworth Farms #1 mice. […] Three tests were performed:
In the second phase of the ADD program protocol, estimates of anticonvulsant activity and neurotoxicity are quantified. The median effective dose (ED50) in the MES, sc Met, and rotorod test is determined. In the case of a compound with apparent activity in only one anticonvulsant test, testing is carried out in the other up to, and in some cases beyond, doses which produce neurological deficit. Compounds which fail to produce minimal neurological deficit are tested whenever possible to doses ten times their lowest anticonvulsant ED50. […] The rotorod ED50 is determined at the time of the peak neurologic deficit.

Data set [4] relates to Maximal electroshock seizures. The experiment in a line: MES maximal electroshock seizure test, mice ip. Format: in vivo. The conditions noted are these: for responders at 100 mg/kg / responders at 300 mg/kg / responders at 3 mg/kg / responders at 10 mg/kg: Mus musculus, ip. As to the method: Three tests were performed:
1. MES--Electroshock Seizure Test
(§2) Maximal electroshock seizures are elicited with a 60-cycle alternating current of 50 mA intensity (5-7 times that necessary to elicit minimal electroshock seizures) delivered via corneal electrodes for 0.2 seconds. A drop of 0.9% saline is instilled in the eye prior to application of the electrodes in order to […].
In general terms: The maximal electroshock test induces tonic seizures with an electrical stimulus.

The test system of data set [5] is Maximal electroshock seizures. The experiment in a line: Phase VI oral MES test, rats. Format: in vivo. The conditions noted are these: for responders at 50 mg/kg: Rattus norvegicus.
Source text: as §2, §1

Setting [6] is: 0.5 h, 100 mg/kg, 30 min, read-out: scMet, animals protected/tested (converted).
[7] abbreviates: 0.5 h, 300 mg/kg, 30 min, read-out: scMet, animals protected/tested (converted).
Setting [8] is: 4 h, 100 mg/kg, 4 h, read-out: scMet, animals protected/tested (converted).
Setting [9] is: 4 h, 300 mg/kg, 4 h, read-out: scMet, animals protected/tested (converted).
The mark [10] stands for this setting: 0.5 h, 100 mg/kg, 30 min, read-out: MES, animals protected/tested (converted).
Where [11] appears, read: 0.5 h, 300 mg/kg, 30 min, read-out: MES, animals protected/tested.
[12] abbreviates: 4 h, 100 mg/kg, 4 h, read-out: MES, animals protected/tested (converted).
[13] abbreviates: 4 h, 300 mg/kg, 4 h, read-out: MES, animals protected/tested.
Where [14] appears, read: 0.5 h, oral, 50 mg/kg, 0.50 h, read-out: MES, animals protected/tested (converted).
Where [15] appears, read: oral, 50 mg/kg, 0.25 h, read-out: MES, animals protected/tested (converted).
Setting [16] is: oral, 50 mg/kg, 1.00 h, read-out: MES, animals protected/tested (converted).
[17] abbreviates: oral, 50 mg/kg, 2.00 h, read-out: MES, animals protected/tested (converted).
[18] abbreviates: 4 h, read-out: scMet, animals protected/tested.
[19] abbreviates: 0.5 h, read-out: MES, animals protected/tested.
Where [20] appears, read: 4 h, read-out: MES, animals protected/tested.
Where [21] appears, read: 0.5 h, Phase II, 0.50 h, read-out: MES, animals protected/tested.
The mark [22] stands for this setting: 0.5 h, Phase II, 0.50 h, read-out: MES, animals protected/tested (converted).
Setting [23] is: 2 h, Phase II, 100 mg/kg, 2.00 h, read-out: MES, animals protected/tested (converted).
The mark [24] stands for this setting: 3 h, Phase II, 100 mg/kg, 3.00 h, read-out: MES, animals protected/tested (converted).

Each structure is given as a SMILES string. Read-outs that look alike come from different tables or passages of the source.

Regarding `CC1(C)CC(=O)C=C(Nc2ccc(N)cc2)C1` [Compound 142], the responders at 100 mg/kg is 0% in data set [1] (setting [6]); 0% in data set [1] (setting [8]); 50% in data set [4] (0.25 h, Phase II, 100 mg/kg, 0.25 h, read-out: MES, animals protected/tested (converted)); 0% in data set [4] (setting [10]); 50% in data set [4] (1 h, Phase II, 100 mg/kg, 1.00 h, read-out: MES, animals protected/tested (converted)); 33.3% in data set [4] (setting [12]). For the same molecule, the responders at 300 mg/kg in data set [1] (setting [7]) was 0%; in data set [1] (setting [9]) it was 0%; in data set [4] (setting [11]), 100%; in data set [4] (setting [13]), 100%. In addition, the minimal effective dose in the data set on seizures (Phase I) was < 100 mg/kg. Also, the “Tox, animals toxic/tested” value in the data set “in vivo [2]” is listed as 0/4. Further, the “Tox (rotorod), animals toxic/tested” value in “in vivo [3]” (100 mg/kg) is on record as 0/2. Further, the responders at 50 mg/kg was 0% in data set [5] (setting [14]); 0% in data set [5] (setting [15]); 0% in data set [5] (setting [16]); 0% in data set [5] (setting [17]); 25% in data set [5] (oral, 50 mg/kg, 4.00 h, read-out: MES, animals protected/tested (converted)).
Take `O=C1C=C(NCCc2ccccc2)CCC1` [Compound 154]: the “scMet, animals protected/tested” value was 0/1 in data set [1] (300 mg/kg, 30 min) and 0/1 in data set [1] (300 mg/kg, 4 h). The “Tox, animals toxic/tested” value in “in vivo [2]” is listed as 0/4. In addition, the “Tox (rotorod), animals toxic/tested” value in “in vivo [3]” (100 mg/kg) was 0/2. Also, the “MES, animals protected/tested” value in data set [4] (300 mg/kg, 30 min) is 1/1; in data set [4] (300 mg/kg, 4 h), 0/1; in data set [4] (Phase II, 100 mg/kg, 0.25 h) it was 2/2; in data set [4] (Phase II, 100 mg/kg, 1.00 h), 0/2; in data set [5] (oral, 50 mg/kg, 0.25 h) it was 0/4; in data set [5] (oral, 50 mg/kg, 0.50 h) it was 0/4. Moreover, the “MES, animals protected/tested” value is 0/4 in data set [5] (oral, 50 mg/kg, 1.00 h); 0/4 in data set [5] (oral, 50 mg/kg, 2.00 h); 0/4 in data set [5] (oral, 50 mg/kg, 4.00 h).
On to `O=C1C=C(NCCc2ccccc2)CCC1` [Compound 149], for which the responders at 100 mg/kg in data set [1] (0.5 h, read-out: scMet, animals protected/tested) is 0%; in data set [1] (setting [18]), 0%; in data set [4] (setting [19]) it was 100%; in data set [4] (setting [20]) it was 0%. Moreover, the responders at 300 mg/kg in data set [1] (setting [18]) amounted to 0%; in data set [4] (setting [19]), 100%; in data set [4] (setting [20]), 0%. Moreover, in the data set on seizures, the minimal effective dose was < 100 mg/kg. The “Tox, animals exhibiting toxicity/tested” value is listed as 4/8 in the data set “in vivo [3]” (100 mg/kg, 30 min); 0/4 in the data set “in vivo [3]” (100 mg/kg, 4 h); 1/2 in “in vivo [3]” (300 mg/kg, 4 h). For the same molecule, the responders at 50 mg/kg is 100% in data set [5] (po, 0.25 h, read-out: MES, animals protected/tested); 100% in data set [5] (po, 0.5 h, read-out: MES, animals protected/tested); 75% in data set [5] (po, 1 h, read-out: MES, animals protected/tested); 25% in data set [5] (po, 2 h, read-out: MES, animals protected/tested); 25% in data set [5] (po, 4 h, read-out: MES, animals protected/tested).
As for `COC(=O)C1C(=O)C=C(Nc2ccc(C(F)(F)F)cc2)CC1(C)C` (stereo not shown) [Compound 121], the responders at 100 mg/kg is 0% in data set [1] (setting [6]), 0% in data set [1] (setting [8]), 100% in data set [4] (setting [10]) and 100% in data set [4] (setting [12]). Further, the responders at 300 mg/kg in data set [1] (setting [7]) is 0%; in data set [1] (setting [9]), 0%; in data set [4] (setting [11]), 100%; in data set [4] (setting [13]), 100%. Moreover, the minimal effective dose in the data set on seizures (Phase I) is < 100 mg/kg. Also, the “Tox, animals toxic/tested” value in “in vivo [2]” was 0/4. In addition, the “Tox (rotorod), animals toxic/tested” value in the data set “in vivo [3]” (3 mg/kg) and in the data set “in vivo [3]” (10 mg/kg) was 0/4 throughout. For the same molecule, the responders at 3 mg/kg in data set [4] (setting [21]) is 0%. Also, in data set [4] (setting [22]), the responders at 10 mg/kg was 0%. Moreover, the responders at 50 mg/kg is 75% in data set [5] (setting [14]), 75% in data set [5] (setting [15]), 100% in data set [5] (setting [16]) and 100% in data set [5] (setting [17]).
In the case of `CCOC(=O)C1C(=O)C=C(Nc2ccc(Cl)cc2)CC1C` (stereo not shown) [Compound 122], the responders at 100 mg/kg in data set [1] (setting [6]) was 0%; in data set [1] (setting [8]) it was 0%; in data set [4] (setting [10]), 100%; in data set [4] (setting [12]), 0%. The responders at 300 mg/kg was 50% in data set [1] (0.5 h, 300 mg/kg, 30 min, second trial, read-out: scMet, animals protected/tested (converted)); 100% in data set [1] (setting [7]); 0% in data set [1] (setting [9]); 100% in data set [4] (setting [11]); 100% in data set [4] (setting [13]). Further, the minimal effective dose in the data set on seizures (Phase I) is < 100 mg/kg. In “in vivo [2]”, the “Tox, animals toxic/tested” value is reported as 0/4. The “Tox (rotorod), animals toxic/tested” value in “in vivo [3]” (3 mg/kg) and in “in vivo [3]” (10 mg/kg) was 0/4 throughout. The responders at 10 mg/kg in data set [4] (0.25 h, mice ip, 0.25 h, read-out: MES, animals protected/tested (converted)) was 75%; in data set [4] (setting [22]), 25%; in data set [4] (0.5 h, mice ip, 0.50 h, read-out: MES, animals protected/tested (converted)) it was 75%; in data set [4] (1 h, mice ip, 1.00 h, read-out: MES, animals protected/tested (converted)), 100%; in data set [4] (2 h, mice ip, 2.00 h, read-out: MES, animals protected/tested (converted)), 25%; in data set [4] (4 h, mice ip, 4.00 h, read-out: MES, animals protected/tested (converted)), 25%. In data set [4] (setting [21]), the responders at 3 mg/kg amounted to 0%. The “anti-MES protecting ability” value in data set [4] (Phase I) is “showed anti-MES protecting ability”. For the same molecule, the responders at 50 mg/kg in data set [5] (setting [14]) was 100%; in data set [5] (setting [15]), 75%; in data set [5] (setting [16]), 75%; in data set [5] (setting [17]) it was 100%.
In the case of `COC(=O)C1C(=O)C=C(Nc2ccc([N+](=O)[O-])cc2)CC1(C)C` (stereo not shown) [Compound 118], the responders at 300 mg/kg in data set [1] (setting [7]) is 0%; in data set [1] (setting [9]), 0%; in data set [4] (setting [11]) it was 0%; in data set [4] (setting [13]), 100%. Moreover, in the data set on seizures (Phase I), the minimal effective dose is > 100 mg/kg. The “Tox (rotorod), animals toxic/tested” value in “in vivo [3]” (100 mg/kg) was 0/2. In addition, the responders at 100 mg/kg in data set [4] (setting [23]) and in data set [4] (setting [24]) was 0% each time.
Consider `CCc1ccc(NC2=CC(=O)CC(C)(C)C2)cc1` [Compound 140], for which the responders at 300 mg/kg in data set [1] (setting [7]) is 0%; in data set [1] (setting [9]) it was 0%; in data set [4] (setting [11]) it was 0%; in data set [4] (setting [13]) it was 100%. The minimal effective dose with seizures (Phase I) is > 100 mg/kg. Further, the “Tox (rotorod), animals toxic/tested” value in “in vivo [3]” (100 mg/kg) is recorded as 0/2. In addition, the responders at 100 mg/kg in data set [4] (setting [23]) and in data set [4] (setting [24]) was 0% in each case.
